{"source": "ChEMBL document CHEMBL5346899", "about": "“PKM2/PDK1 dual-targeted shikonin derivatives restore the sensitivity of EGFR-mutated NSCLC cells to gefitinib by remodeling glucose metabolism” (Eur J Med Chem, 2023)", "key": {"[1]": {"test_system": "NCI-H1975", "test": "Induction of apoptosis in human NCI-H1975 cells assessed as regulation of caspase-8 expression by Western blot analysis", "type": "functional, cell-based"}, "[2]": {"test_system": "NCI-H1975", "test": "Induction of apoptosis in human NCI-H1975 cells assessed as early apoptotic cells at 2 micromol/L incubated for 24 hrs by Annexin V-FITC/PI staining based analysis (reference value: 1.88%)", "type": "functional", "details": "dose 2 µmol/L, at 2 µM"}, "[3]": {"test": "Acute toxicity in ICR mouse assessed as damage in vital organs at 2.4 to 38.4 mg/kg, ip measured after 15 days by H and E staining based analysis", "type": "organism-based", "details": "in vivo, 360 h, dose 2.4-38.4 mg/kg, time 15 day"}, "[4]": {"test_system": "NCI-H1975", "test": "Induction of apoptosis in human NCI-H1975 cells assessed as regulation of cleaved PARP expression by Western blot analysis", "type": "functional, cell-based"}, "[5]": {"test_system": "HCC827", "test": "Induction of apoptosis in human HCC827 cells assessed as late apoptotic cells at 1 micromol/L incubated for 24 hrs by Annexin V-FITC/PI staining based analysis (reference value: 8.42%)", "type": "functional", "details": "dose 1 µmol/L, at 1 µM"}, "[6]": {"test_system": "NCI-H1975", "test": "Induction of apoptosis in human NCI-H1975 cells with siRNA mediated […] knockdown assessed as early apoptotic cells at 2 micromol/L incubated for 24 hrs by Annexin V-FITC/PI staining based analysis (reference value: 2.54%)", "type": "functional", "details": "dose 2 µmol/L, at 2 µM"}, "[7]": {"test_system": "HCC827", "test": "Downregulation of PDK1 protein expression in human HCC827 cells at 1 to 2 micromol/L by Western blot analysis", "type": "functional, cell-based", "details": "dose 1-2 µmol/L"}, "[8]": {"test_system": "NCI-H1975", "test": "Induction of apoptosis in human NCI-H1975 cells assessed as early apoptotic cells at 0.5 micromol/L incubated for 24 hrs in presence of gefitinib by Annexin V-FITC/PI staining based analysis (reference value: 2.55%)", "type": "functional", "details": "dose 0.5 µmol/L, at 0.5 µM"}, "[9]": {"test_system": "HCC827", "test": "Antiproliferative activity against siRNA mediated PKM2 knockdown human HCC827 cells assessed as inhibition of cell growth incubated for 24 hrs by CCK-8 assay", "type": "functional, cell-based", "details": "HCC827, 24 h"}, "[10]": {"test_system": "NCI-H1975", "test": "Induction of apoptosis in human NCI-H1975 cells assessed as early apoptotic cells at 0.5 micromol/L incubated for 24 hrs by Annexin V-FITC/PI staining based analysis (reference value: 2.55%)", "type": "functional", "details": "dose 0.5 µmol/L, at 0.5 µM"}, "[11]": {"test_system": "NCI-H1975", "test": "Downregulation of PDK1 protein expression in human NCI-H1975 cells at 1 to 2 micromol/L by Western blot analysis", "type": "functional, cell-based", "details": "dose 1-2 µmol/L"}, "[12]": {"test_system": "NCI-H1975", "test": "Induction of apoptosis in human NCI-H1975 cells assessed as regulation of cleaved caspase-8 expression by Western blot analysis", "type": "functional, cell-based"}, "[13]": {"test_system": "HCC827", "test": "Upregulation of PDH protein expression in human HCC827 cells at 1 to 2 micromol/L by Western blot analysis", "type": "functional, cell-based", "details": "dose 1-2 µmol/L"}, "[14]": {"test_system": "NCI-H1299", "test": "Induction of apoptosis in human NCI-H1299 cells assessed as late apoptotic cells at 1 micromol/L incubated for 24 hrs by Annexin V-FITC/PI staining based analysis (reference value: 14.9%)", "type": "functional", "details": "dose 1 µmol/L, at 1 µM"}, "[15]": {"test_system": "NCI-H1975", "test": "Antiproliferative activity against human NCI-H1975 cells assessed as reduction in clone size", "type": "functional, cell-based"}, "[16]": {"test_system": "NCI-H1975", "test": "Antitumor activity against human NCI-H1975 cells xenografted in athymic nu/nu mouse assessed as inhibition of tumor cell proliferation at 2.4 to 4.8 mg/kg, ip administered every 2 days for 11 days by Ki67 staining based analysis", "type": "functional, organism-based", "details": "dose 2.4-4.8 mg/kg, time 11.0 day"}, "[17]": {"test_system": "NCI-H1299", "test": "Induction of apoptosis in human NCI-H1299 cells assessed as early apoptotic cells at 2 micromol/L incubated for 24 hrs by Annexin V-FITC/PI staining based analysis (reference value: 2.43%)", "type": "functional", "details": "dose 2 µmol/L, at 2 µM"}, "[18]": {"test_system": "NCI-H1975", "test": "Inhibition of glycolysis in human NCI-H1975 cells assessed as reduction in lactate production incubated for 1 hrs by colorimetric assay", "type": "functional, cell-based"}, "[19]": {"target": "T1, Pyruvate kinase PKM (Homo sapiens, UniProt P14618)", "test": "Inhibition of PKM2 (unknown origin) nuclear translocation"}, "[20]": {"test_system": "NCI-H1975", "test": "Induction of apoptosis in human NCI-H1975 cells assessed as dead cells at 0.5 micromol/L incubated for 24 hrs in presence of gefitinib by Annexin V-FITC/PI staining based analysis (reference value: 0.103%)", "type": "functional", "details": "dose 0.5 µmol/L, at 0.5 µM"}, "[21]": {"test_system": "NCI-H1975", "test": "Antitumor activity against human NCI-H1975 cells xenografted in athymic nu/nu mouse assessed as reduction in tumor size at 2.4 to 4.8 mg/kg, ip administered every 2 days for 11 days by vernier caliper method", "type": "functional, organism-based", "details": "dose 2.4-4.8 mg/kg, time 11.0 day"}, "[22]": {"test_system": "NCI-H1975", "test": "Induction of apoptosis in human NCI-H1975 cells assessed as regulation of Fas expression by Western blot analysis", "type": "functional, cell-based"}, "[23]": {"test_system": "NCI-H1299", "test": "Induction of apoptosis in human NCI-H1299 cells assessed as early apoptotic cells at 1 micromol/L incubated for 24 hrs by Annexin V-FITC/PI staining based analysis (reference value: 2.43%)", "type": "functional", "details": "dose 1 µmol/L, at 1 µM"}, "[24]": {"target": "T1, Pyruvate kinase PKM", "test": "Activation of PKM2 in human NCI-H1975 cells at 1 to 2 micromol/L by Western blot analysis", "type": "cell-based", "details": "filed as activator, dose 1-2 µmol/L"}, "[25]": {"target": "T1, Pyruvate kinase PKM", "test": "Binding affinity to PKM2 (unknown origin) assessed as dissociation constant associated for 60 secs and dissociated for 90 secs by bio-layer interferometry analysis"}, "[26]": {"test_system": "NCI-H1975", "test": "Induction of apoptosis in human NCI-H1975 cells with siRNA mediated […] knockdown assessed as late apoptotic cells at 2 micromol/L incubated for 24 hrs by Annexin V-FITC/PI staining based analysis (reference value: 6.25%)", "type": "functional", "details": "dose 2 µmol/L, at 2 µM"}, "[27]": {"test_system": "HCC827", "test": "Antiproliferative activity against human HCC827 cells assessed as inhibition of clone formation rate", "type": "functional, cell-based"}, "[28]": {"test": "in vitro", "details": "human, HEK293T cells", "description": "Cytotoxicity against HEK293T cells assessed as inhibition of cell growth incubated for 24 hrs by CCK-8 assay"}, "[29]": {"test_system": "HCC827", "test": "Antiproliferative activity against human HCC827 cells transfected with siRNA assessed as inhibition of cell growth incubated for 24 hrs by CCK-8 assay", "type": "functional, cell-based", "details": "HCC827, 24 h"}, "[30]": {"test_system": "NCI-H1975", "test": "Antitumor activity against human NCI-H1975 cells xenografted in athymic nu/nu mouse assessed as damage in tumor tissue at 2.4 to 4.8 mg/kg, ip administered every 2 days for 11 days by H and E staining based analysis", "type": "functional, organism-based", "details": "dose 2.4-4.8 mg/kg, time 11.0 day"}, "[31]": {"test_system": "A549", "test": "Induction of apoptosis in human A549 cells assessed as late apoptotic cells at 1 micromol/L incubated for 24 hrs by Annexin V-FITC/PI staining based analysis (reference value: 3.18%)", "type": "functional", "details": "dose 1 µmol/L, at 1 µM"}, "[32]": {"test_system": "NCI-H1299", "test": "Induction of apoptosis in human NCI-H1299 cells assessed as late apoptotic cells at 2 micromol/L incubated for 24 hrs by Annexin V-FITC/PI staining based analysis (reference value: 14.9%)", "type": "functional", "details": "dose 2 µmol/L, at 2 µM"}, "[33]": {"test_system": "HCC827", "test": "Effect on PKM2 protein expression in human HCC827 cells at 1 to 2 micromol/L by Western blot analysis", "type": "functional, cell-based", "details": "dose 1-2 µmol/L"}, "[34]": {"test_system": "HCC827", "test": "Induction of apoptosis in human HCC827 cells assessed as early apoptotic cells at 1 micromol/L incubated for 24 hrs by Annexin V-FITC/PI staining based analysis (reference value: 9.14%)", "type": "functional", "details": "dose 1 µmol/L, at 1 µM"}, "[35]": {"test_system": "NCI-H1975", "test": "Induction of apoptosis in human NCI-H1975 cells assessed as regulation of Smac expression by Western blot analysis", "type": "functional, cell-based"}, "[36]": {"test_system": "NCI-H1975", "test": "Induction of mitochondrial transmembrane potential dissipation in human NCI-H1975 cells assessed as cells with low mitochondrial transmembrane potential at 1 micromol/L by FL-1/FL-2 channel based fluorescence analysis (reference value: 2.13%)", "type": "functional", "details": "dose 1 µmol/L; at 1 µM"}}, "note": "Active and inactive are the calls of the source. The calls are words filed in the database; no cut-off is given here.", "data": [{"smiles": "COC(=O)[C@H](CS[C@H](CC=C(C)C)C1=CC(=O)c2c(O)ccc(O)c2C1=O)NC(=O)CCCC[C@@H]1CCSC(c2ccccc2C)S1", "note": "(stereo partly specified)", "values": [{"measurement": "Activity", "setting": "[1]", "value": "Active"}, {"measurement": "Activity", "setting": "[2]", "value": 22.2, "unit": "%"}, {"measurement": "Activity", "setting": "[3]", "value": "Non-Toxic"}, {"measurement": "Activity", "setting": "[4]", "value": "Active"}, {"measurement": "Activity", "setting": "[5]", "value": 12.1, "unit": "%"}, {"measurement": "Activity", "setting": "[6]", "value": 2.67, "unit": "%"}, {"measurement": "Activity", "setting": "[7]", "value": "inactive"}, {"measurement": "Activity", "setting": "[8]", "value": 17.6, "unit": "%"}, {"measurement": "IC50", "setting": "[9]", "value": 13, "unit": "µM"}, {"measurement": "Activity", "setting": "[10]", "value": 1.54, "unit": "%"}, {"measurement": "Activity", "setting": "[11]", "value": "inactive"}, {"measurement": "Activity", "setting": "[12]", "value": "Active"}, {"measurement": "Activity", "setting": "[13]", "value": "Active"}, {"measurement": "Activity", "setting": "[14]", "value": 16.7, "unit": "%"}, {"measurement": "Activity", "setting": "[15]", "value": "Dose-Dependent Effect"}, {"measurement": "Activity", "setting": "[16]", "value": "Active"}, {"measurement": "Activity", "setting": "[17]", "value": 2.68, "unit": "%"}, {"measurement": "inhibition", "setting": "[18]", "value": "Active"}, {"measurement": "inhibition", "setting": "[19]", "value": "Active"}, {"measurement": "Activity", "setting": "[20]", "value": 0.011, "unit": "%"}, {"measurement": "Activity", "setting": "[21]", "value": "Active"}, {"measurement": "Activity", "setting": "[22]", "value": "Active"}, {"measurement": "Activity", "setting": "[23]", "value": 4.68, "unit": "%"}, {"measurement": "Activity", "setting": "[24]", "value": "Active"}, {"measurement": "Kd", "setting": "[25]", "value": 28, "unit": "µM"}, {"measurement": "Activity", "setting": "[26]", "value": 8.16, "unit": "%"}, {"measurement": "Activity", "setting": "[27]", "value": "Dose-Dependent Effect"}, {"measurement": "IC50 at 24 h", "setting": "[28]", "value": 99.5, "unit": "µM"}, {"measurement": "IC50", "setting": "[29]", "value": 6, "unit": "µM"}, {"measurement": "Activity", "setting": "[30]", "value": "Active"}, {"measurement": "Activity", "setting": "[31]", "value": 5.33, "unit": "%"}, {"measurement": "Activity", "setting": "[32]", "value": 24.5, "unit": "%"}, {"measurement": "Activity", "setting": "[33]", "value": "inactive"}, {"measurement": "Activity", "setting": "[34]", "value": 16.5, "unit": "%"}, {"measurement": "Activity", "setting": "[35]", "value": "Active"}, {"measurement": "Activity", "setting": "[36]", "value": 11.8, "unit": "%"}]}]}
